Data from patent publication US20260130851A1, “PLINABULIN MICELLE COMPOSITION AND PREPARATION METHOD THEREFOR” (priority 2022, published 2026).
Converted amounts (≈) assume the structure as drawn. Where two headings read alike, the source gives them in different places.

Test: Equilibrium solubility of Plinabulin in propylene glycol-D5W diluents (HPLC)
Format: physicochemical
Conditions: for Control Group - Absolute Ethanol Test Concentration: 25° C.
Description: Corresponding propylene glycol-D5W injections were prepared. The preparation process was as follows: • Diluent 1 (corresponding to a dilution ratio of 1:20). Weigh about 6 g of propylene glycol, place it in a beaker, add 200 ml of D5W injection, and mix well. • Diluent 2 (corresponding to a dilution ratio of 1:30). Weigh about 4 g of propylene glycol, place it in a beaker, add 200 ml of D5W injection, and mix well. • Diluent 3 (corresponding to a dilution ratio of 1:50): Weigh about 2.4 g of propylene glycol, place it in a beaker, add 200 ml of D5W injection, and mix well.
Acceptance criteria: The concentration of Plinabulin in each solution was determined until there was no significant difference between two consecutive determinations, i.e., equilibrium solubility.
Test solutions were taken at different time points, filtered through a 0.45 μm glass fiber membrane, and injected into the high-performance liquid chromatography system. The equilibrium solubility of Plinabulin in solutions with different ratios at various time points was calculated by the external standard method.

CC(C)(C)c1[nH]cnc1/C=c1\[nH]c(=O)/c(=C/c2ccccc2)[nH]c1=O [Plinabulin, (3Z,6Z)-3-[(5-tert-butyl-1H-imidazol-4-yl)methylene]-6-(phenylmethylene)-2,5-piperazinedione]
Control Group - Absolute Ethanol Test Concentration (Test Sample 1 (49.5 h), Diluent 1 (about 6 g propylene glycol + 200 ml D5W, 1:20), 100 rpm): 0.152 µg/mL | Control Group - Absolute Ethanol Test Concentration (Test Sample 2 (48.5 h), Diluent 2 (about 4 g propylene glycol + 200 ml D5W, 1:30), 100 rpm): 0.125 µg/mL | Control Group - Absolute Ethanol Test Concentration (Test Sample 3 (49 h), Diluent 3 (about 2.4 g propylene glycol + 200 ml D5W, 1:50), 100 rpm): 0.113 µg/mL | solubility thermodynamic at 49.5 h (propylene glycol-D5W diluent, 25 °C, saline or isotonic, thermodynamic from solid, Test Sample 1 (1:20) dilution level, 49.5 h, read-out: Test Concentration (equilibrium solubility)): 0.152 µg/mL (≈ 0.452 µM) | solubility thermodynamic at 72 h (propylene glycol-D5W diluent, 25 °C, saline or isotonic, thermodynamic from solid, Test Sample 1 (1:20) dilution level, 72 h, read-out: Test Concentration (equilibrium solubility)): 0.145 µg/mL (≈ 0.431 µM) | solubility thermodynamic at 94 h (propylene glycol-D5W diluent, 25 °C, saline or isotonic, thermodynamic from solid, Test Sample 1 (1:20) dilution level, 94 h, read-out: Test Concentration (equilibrium solubility)): 0.143 µg/mL (≈ 0.425 µM) | solubility thermodynamic at 49.5 h (propylene glycol-D5W diluent, 25 °C, saline or isotonic, thermodynamic from solid, Test Sample 1 (49.5 h), Diluent 1 (about 6 g propylene glycol + 200 ml D5W, 1:20), 100 rpm, read-out: Control Group - Diluent Test Concentration): 0.155 µg/mL | solubility thermodynamic at 48.5 h (propylene glycol-D5W diluent, 25 °C, saline or isotonic, thermodynamic from solid, Test Sample 2 (1:30) dilution level, 48.5 h, read-out: Test Concentration (equilibrium solubility)): 0.125 µg/mL (≈ 0.372 µM) | solubility thermodynamic at 73 h (propylene glycol-D5W diluent, 25 °C, saline or isotonic, thermodynamic from solid, Test Sample 2 (1:30) dilution level, 73 h, read-out: Test Concentration (equilibrium solubility)): 0.112 µg/mL (≈ 0.333 µM) | solubility thermodynamic at 94.5 h (propylene glycol-D5W diluent, 25 °C, saline or isotonic, thermodynamic from solid, Test Sample 2 (1:30) dilution level, 94.5 h, read-out: Test Concentration (equilibrium solubility)): 0.113 µg/mL (≈ 0.336 µM) | solubility thermodynamic at 48.5 h (propylene glycol-D5W diluent, 25 °C, saline or isotonic, thermodynamic from solid, Test Sample 2 (48.5 h), Diluent 2 (about 4 g propylene glycol + 200 ml D5W, 1:30), 100 rpm, read-out: Control Group - Diluent Test Concentration): 0.13 µg/mL | solubility thermodynamic at 49 h (propylene glycol-D5W diluent, 25 °C, saline or isotonic, thermodynamic from solid, Test Sample 3 (1:50) dilution level, 49 h, read-out: Test Concentration (equilibrium solubility)): 0.113 µg/mL (≈ 0.336 µM) | solubility thermodynamic at 73.5 h (propylene glycol-D5W diluent, 25 °C, saline or isotonic, thermodynamic from solid, Test Sample 3 (1:50) dilution level, 73.5 h, read-out: Test Concentration (equilibrium solubility)): 0.095 µg/mL (≈ 0.282 µM) | solubility thermodynamic at 96 h (propylene glycol-D5W diluent, 25 °C, saline or isotonic, thermodynamic from solid, Test Sample 3 (1:50) dilution level, 96 h, read-out: Test Concentration (equilibrium solubility)): 0.134 µg/mL (≈ 0.398 µM) | solubility thermodynamic at 120 h (propylene glycol-D5W diluent, 25 °C, saline or isotonic, thermodynamic from solid, Test Sample 3 (1:50) dilution level, 120 h, read-out: Test Concentration (equilibrium solubility)): 0.135 µg/mL (≈ 0.401 µM) | solubility thermodynamic at 49 h (propylene glycol-D5W diluent, 25 °C, saline or isotonic, thermodynamic from solid, Test Sample 3 (49 h), Diluent 3 (about 2.4 g propylene glycol + 200 ml D5W, 1:50), 100 rpm, read-out: Control Group - Diluent Test Concentration): 0.117 µg/mL
